Test results taken from patent US12186320B2, “Therapeutic agent containing pyrazolo[3,4-d]pyrimidine compound as active ingredient” (TAIHO PHARMACEUTICAL CO., LTD., priority 2018, dated 2025).
Where two headings read alike, the source gives them in different places.

What was measured:
[1] = tested on: Champions Tumor Graft models CTG-1171; conditions: cited from earlier work
[2] = tested on: Human stomach cancer cell line, NCI-N87; test: Antitumor evaluation in model with tumor recurrence following administration of trastuzumab emtansine (NCI-N87 subcutaneous xenograft); format: in vivo, nude mice (BALB/cAJcl-nu/nu); conditions: for TV (mm^3) on Day43 Mean ± SD: Step 2, Day 43, Compound 1 60 mg/kg/day p.o. Days 1-42, trastuzumab emtansine 10 mg/kg/day i.v. Days 1, 22, n=9
Method: Human stomach cancer cell line, NCI-N87, was obtained from American Type Culture Collection (ATCC). The cell line was cultured in a RPMI-1640 medium (containing 4.5 g/L glucose, 10 mM HEPES and 1 mM sodium pyruvate) (Wako Pure Chemical Corporation) containing 10% fetal bovine serum (FBS) at 37° C. in a 5% CO2 incubator.
The NCI-N87 cells were resuspended in PBS to a concentration of 10^8 cells/mL. A 1-mL tuberculin syringe with a 25G needle was used to subcutaneously transplant […] cells/0.1 mL each of the cell suspension into the right chests of 6-week-old nude mice (BALB/cAJcl-nu/nu, CLEA Japan, Inc.).
The tumor diameter was measured with a digital caliper by holding the long diameter and the short diameter of the tumor between the measuring surfaces of the digital caliper for each mouse. Measurements took place at a frequency of once in 2-5 days including the day of group sorting and the day of judgement. The tumor volume (TV) was calculated based on these long and short diameters. The relative tumor volume (RTV) and the rate of change in the relative tumor volume (T/C) were calculated from the calculated tumor volume. TV, RTV and T/C were calculated according to the following equations. Tumor volume TV(mm^3)=(Long diameter, mm)×(Short diameter, mm)×(Short diameter, mm)/2 Relative tumor volume RTV=(TV on day of measurement)/(TV on day of dividing into groups) Rate of change in relative tumor volume T/C (%)=(Mean RTV of treated group)/(Mean RTV of control group)×100
The tumor diameters and weights were measured with time to calculate TV and BWC.
Eighteen nude mice confirmed with tumor recurrence in Step 1 were selected, and 9 animals were assigned to each group by equal distribution (MiSTAT (ver.2.0)) as follows such that the mean TV of each group was uniform (Day 1, i.e., Day 85 as counted from Step 1). Compound 1 was prepared to 6 mg/mL with a 0.1N HCl solution, and the resultant was orally administered once a day on Days 1-42 consecutively. […] The tumor diameters and weights were measured with time to calculate TV and BWC.

[3] = tested on: Breast cancer (primary), HER2 +; conditions: single patient; neighbouring lines without a result appear to be partners of the same regimen; cited from earlier work
[4] = tested on: Champions Tumor Graft models CTG-1171; test: Anti-tumor effect using cancer patient-derived cells (CTG-1171 PDX, Test Example 2); format: in vivo, nude mice (Athymic Nude-Foxn1nu)
Method: Champions Tumor Graft models CTG-1171 (Champions Oncology, Inc.) having the profiles shown in Tables 5-8 were transplanted into Stock mice (Athymic Nude-Foxn1^nu, Envigo). Once the tumor volume of the transplanted tumor reached 1,000-1,500 mm^3, the tumor was taken out and a fragment thereof of about 65 mm^3 was subcutaneously transplanted into the left side of 7-week-old nude mice (Athymic Nude-Foxn1^nu, Envigo). Tumor diameters were measured twice a week with a digital caliper. TV was calculated according to the following equation. TV (mm^3)=Width (mm)^2×Length (mm)×0.52
Ten individuals whose tumor volumes reached 150-300 mm^3 were assigned to each group (Day 0).
(§1) Compound 1 was prepared to have a predetermined concentration with a 0.1N HCl solution, and the resultant was orally administered once a day on Days 0-27 consecutively. Tumor diameters were measured twice a week with a digital caliper. The rate of change in the weight of the mouse was calculated in the same manner as Test example 1 above. Mice observed with weight loss by 10% or more as compared to Day 0 were given DietGel (registered trademark).
The anti-tumor effect of the drug was evaluated according to tumor growth inhibition (TGI), which was calculated by the following equation. TGI=(100%×[1−(TV of treated group on Day 27−TV of treated group on Day 0)/(TV of control group on Day 27−TV of control group on Day 0)])

[5] = Body weight change / toxicity judgement in CTG-1171 PDX model (Test Example 2); format: in vivo; conditions: 60 mg/kg/day p.o. Days 0-27
Method: as §1
In addition, the presence of toxicity was judged as follows: a dose observed with a weight loss of 20% or more or a mortality rate of 10% or more was judged to have exceeded the MTD (maximum tolerated dose) and thus toxicity was present.

[6] = value on first line of a two-line group (apparent combination): Capecitabine 5 with Lapatinib 1 mg/kg/day, once a day for 21 days p.o., Gemcitabine with Nab-paclitaxel, dose not given

## CO[C@H]1C[C@@H]2CC[C@@H](C)[C@@](O)(O2)C(=O)C(=O)N2CCCC[C@H]2C(=O)O[C@H]([C@H](C)C[C@@H]2CC[C@@H](OC(=O)C(C)(CO)CO)[C@H](OC)C2)CC(=O)[C@H](C)/C=C(\C)[C@@H](O)[C@@H](OC)C(=O)[C@H](C)C[C@H](C)/C=C/C=C/C=C/1C [Temsirolimus]
[1]; single agents, Nab-paclitaxel 0.5 mg/kg/day once a week for 3 weeks i.v., Temsirolimus 0.5 once a week for 5 weeks i.p., Trastuzumab 15 once a week for 8 weeks i.v., Afatinib dose not given
  TGI (%): 59%

## Trastuzumab emtansine
[2]; Step 1, 10 mg/kg/day i.v. on Days 1, 22, 43, 64, n=36
  tumor course after administration of trastuzumab emtansine (FIG. 1): tumor shrinkage was confirmed for once by administration of trastuzumab emtansine but tumor recurrence was confirmed on Day 85
[2]
  TV (mm^3) on Day43 Mean ± SD: 421.92 ± 143.78 mm^3
[3]
  Result (treatment history after acquiring tumor tissue): No response
  Result (treatment history before acquiring tumor tissue): No response

## CCCCCOC(=O)Nc1nc(=O)n([C@@H]2O[C@H](C)[C@@H](O)[C@H]2O)cc1F [Capecitabine]
[1]; [6]
  TGI (%): 96%

## CC(=O)O[C@@]12CO[C@@H]1C[C@H](O)[C@@]1(C)C(=O)[C@H](O)C3=C(C)[C@@H](OC(=O)[C@H](O)[C@@H](NC(=O)OC(C)(C)C)c4ccccc4)C[C@@](O)([C@@H](OC(=O)c4ccccc4)[C@H]21)C3(C)C [Docetaxel]
[3]
  Result (treatment history before acquiring tumor tissue): Responded

## Bevacizumab
[3]
  Result (treatment history before acquiring tumor tissue): No response

## CS(=O)(=O)CCNCc1ccc(-c2ccc3ncnc(Nc4ccc(OCc5cccc(F)c5)c(Cl)c4)c3c2)o1 [Lapatinib]
[3]
  Result (treatment history after acquiring tumor tissue): No response

## C=CC(=O)N1CCC[C@@H](n2nc(C(=O)Nc3ccc(CC(=O)N(C)C)c(C)c3C)c3c(N)ncnc32)C1 [Compound 1, (R)-1-(1-acryloylpiperidine-3-yl)-4-amino-N-(4-(2-(dimethylamino)-2-oxoethyl)-2,3-dimethylphenyl)-1H-pyrazolo[3,4-d]pyrimidine-3-carboxamide]
[4]; 60 mg/kg/day p.o. Days 0-27
  TV versus control-administered group on Day 27: significantly lower
[4]; Day 0 (group assignment, baseline), n=10
  TV (mm^3) on Day0 Mean ± SD: 196 ± 22 mm^3
[4]; Day 27, 60 mg/kg/day p.o. Days 0-27, n=10
  TV (mm^3) on Day27 Mean ± SD: 162 ± 27 mm^3
[4]; Day 27 versus Day 0, versus control, 60 mg/kg/day p.o. Days 0-27
  TGI (%): 112%
[2]; Aspin-Welch's t-test, Compound 1 60 mg/kg/day p.o.
  TV versus trastuzumab emtansine-administered group on day of judgement (Day 43): significantly lower
[2]; Day 43, mean TV of Compound 1 group / mean TV of trastuzumab emtansine group × 100, 60 mg/kg/day p.o. Days 1-42
  T/C (%): 25.4%
[2]
  TV (mm^3) on Day43 Mean ± SD: 107.29 ± 37.76 mm^3
[5]
  decrease of average rate of change in the weight during the administration period: < 5%
  judgement of the dose (tolerability): tolerable
[5]; Day 27
  BWG(%) on Day27 Mean: −0.60%

## C=C1C[C@@H]2CC[C@@]34C[C@H]5O[C@H]6[C@@H](O3)[C@H]3O[C@H](CC[C@@H]3O[C@H]6[C@H]5O4)CC(=O)C[C@@H]3[C@@H](OC)[C@@H](C[C@H](O)CN)O[C@H]3C[C@H]3O[C@@H](CC[C@@H]1O2)C[C@@H](C)C3=C [Eribulin]
[3]
  Result (treatment history after acquiring tumor tissue): No response

## Nc1ccn([C@@H]2O[C@H](CO)[C@@H](O)C2(F)F)c(=O)n1 [Gemcitabine]
[1]; [6]
  TGI (%): 28%
